Experimental data from patent US7169891B2, “Human pellino polypeptides” (Immunex Corporation, priority 2000, dated 2007).
Blank lines part the entries; values can stand above or below the molecule they belong to.

Columns and labels:
Pellino-1 = assay: Effect of cell stimulation on Pellino-1 localization and cleavage in transfected COS-7 cells; assay type: cell-based, monkey; conditions: for Effect of growth factor incubation on Pellino-1 (cleavage and redistribution): Pellino-1-transfected cells, concentration not given
Procedure: This example describes the effect of stimulation of COS-7 cells transfected with an expression vector encoding FLAG-Pellino-1 with IL-1 or other molecules. Transfected cells are prepared substantially as described above. […] As Drosophila Pellino was identified by its ability to associate with Pelle, experiments in which Pellino is coexpressed with IRAK have been performed to determine if mammalian Pellino interacted with IRAK, the presumptive mammalian counterpart of Pelle.
To determine if the observed redistribution and proteolytic processing of Pellino-1 specifically required IRAK, Pellino-1-transfected cells were stimulated with agents that activate NF-kB by IRAK-independent pathways such as phorbol myristate acetate (PMA, 100 ng/ml), which is known to promote many of the same intracellular signals as IL-1, and TNF-alpha (20 ng/ml). TNF-alpha activates NF-kB through a mechanism involving the adaptor protein TRADD, the kinase RIP, and TRAF2, while PMA stimulates the activity of protein kinase C which is known to cross-talk with the NF-kB pathway. […] In both cases, 2 to 3 hours of exposure to the stimulus was required before significant Pellino cleavage was seen. The total amount of detectable Pellino-1 polypeptide (the sum of soluble and insoluble fractions) was increased in the presence of PMA or TNF-alpha, which presumably reflects a change in the net rates of Pellino-1 synthesis and/or degradation. […] EGF has been reported in some cells to activate NF-kB through the induction of IkB-alpha degradation.

[1] = tested on: Pellino-1 Cleavage and Relocation; assay: Effect of protease and other inhibitors on PMA-induced Pellino-1 cleavage and relocation in COS7 cells; assay type: cell-based, monkey; conditions: inhibitor 20 microM; COS7 cells treated with PMA
Procedure: In an effort to determine which protease might be involved in the regulation of Pellino-1 cleavage, COS7 cells transfected with a Pellino-1-expressing construct were treated with PMA together with inhibitors of different classes of proteinases as shown in Table 3 below.

[2] = tested on: NF-kB-dependent reporter gene; assay: NF-kB-dependent reporter gene (luciferase) assay in transfected COS cells; assay type: cell-based, monkey
Source text: (§1) The murine Pellino-1 coding sequence DNA was fused, in frame at the 3′ end, to DNA encoding the FLAG epitope, followed by an in-frame stop codon. This construct was cloned into the mammalian expression vector pDC304 (identical to pDC302, described in U.S. Pat. No. 5,599,905, issued Feb. 4, 1997, except that the early splice region, consisting of splice donor and acceptor sites of the SV40 viral element, has been removed); and transfected into an IL-1-responsive line of COS-7 cells by the DEAE-dextran method.
In order to assay the effect of the Pellino-1-FLAG polypeptide and other forms of Pellino polypeptides on reporter gene activity, a method essentially as described in Born et al., 1998, J. Biol. Cheni. 273: 29445–29450 (which is incorporated by reference herein) can be used. As one example of this method, Cos7 cells were transiently transfected by the DEAE-dextran method as described (Cosman et al., 1984, Nature 312: 768–771, which is incorporated by reference herein), using 150 ng of the Pellino polypeptide expression construct and 700 ng of the reporter plasmid per 45,000 cells. Two days post-transfection, cells were stimulated with 10 ng/ml IL-1 or 40 ng/ml IL-18 (PeproTech, Inc.) for 4 hours. Cells were lysed and luciferase activity assessed using Reporter Lysis Buffer and Luciferase Assay Reagent (Promega Corp.). IL-8 promoter-reporter and NFkB-dependent reporter constructs may be used as reporter plasmids. Alternatively, the effect of Pellino polypeptide expression may be assayed in COS-1 cells. In an alternative preferred method, COS7 cells were grown in 12-well dishes as described above. The cells were transiently transfected with Pellino test plasmid, 50 ng of reporter plasmid DNA, and empty vector, as required, to a total of 1 micrograms of total DNA per well. After 24 hours, stimulating agents were added in a small amount (less than 0.5% final volume) of medium or dimethyl sulfoxide, and the cells were re-incubated for 5 hours. Cells were lysed in luciferase Reporter Lysis Buffer (Promega, Madison Wis., 0.25 ml per well) and luciferase activity was measured in a EG & G/Berthold luminometer after addition of Luciferase Assay Reagent (Promega) according to the supplier's instructions. All results were normalized to total protein content of the lysates as measured using the micro-BCA assay (Pierce, Rockford, Ill).

[3] = tested on: Jun N-terminal kinase, p38 kinase, and ERK signaling; assay: Jun N-terminal kinase, p38 kinase and ERK signaling mediated by IL-1; assay type: cell-based
[4] = tested on: IL-8 promoter-reporter gene; assay: IL-8 promoter-reporter gene assay in transfected COS cells; assay type: cell-based, monkey; conditions: COS-1 cells; presence and absence of TNF-alpha; compared to vector-only control
Source text: as §1
In order to assay the effect of the Pellino-1-FLAG polypeptide and other forms of Pellino polypeptides on reporter gene activity, a method essentially as described in Born et al., 1998, J. Biol. Cheni. 273: 29445–29450 (which is incorporated by reference herein) can be used. […] Cells were lysed and luciferase activity assessed using Reporter Lysis Buffer and Luciferase Assay Reagent (Promega Corp.). […] Cells were lysed in luciferase Reporter Lysis Buffer (Promega, Madison Wis., 0.25 ml per well) and luciferase activity was measured in a EG & G/Berthold luminometer after addition of Luciferase Assay Reagent (Promega) according to the supplier's instructions. All results were normalized to total protein content of the lysates as measured using the micro-BCA assay (Pierce, Rockford, Ill).

Molecule: transforming growth factor-beta
- Effect of growth factor incubation on Pellino-1 (cleavage and redistribution) (Pellino-1): little or no effect

Molecule: platelet-derived growth factor
- Effect of growth factor incubation on Pellino-1 (cleavage and redistribution) (Pellino-1): little or no effect

Molecule: epidermal growth factor
- Effect of growth factor incubation on Pellino-1 (cleavage and redistribution) (Pellino-1): very weakly active

Molecule: TNF-alpha
- Time after induction at which cleavage and relocation of Pellino-1 began (Pellino-1; TNF-alpha 20 ng/ml, time-course experiments): about three

Molecule: basic fibroblast growth factor: growth factor
- Effect of growth factor incubation on Pellino-1 (cleavage and redistribution) (Pellino-1): little or no effect

Molecule: COC(=O)CC[C@H](NC(=O)[C@H](CC(=O)OC)NC(=O)OCc1ccccc1)C(=O)N[C@H](C(=O)N[C@@H](CC(=O)OC)C(=O)CF)C(C)C [Z-DEVD-FMK]
- Effect on Pellino-1 Cleavage and Relocation [1]: none

Molecule: CC(=O)N[C@@H](CSC(=O)[C@]1([C@@H](O)C(C)C)NC(=O)[C@H](C)[C@@H]1O)C(=O)O [Lactacystin]
- Effect on Pellino-1 Cleavage and Relocation [1]: none

- Jun N-terminal kinase, p38 kinase, and ERK signaling mediated by IL-1 [3]: moderately augmented
B1: wild-type-FLAG: unaltered murine Pellino-1 (SEQ ID NO:2) fused to the FLAG epitope (protein, listed as Mus musculus)
chain: MFSPDQENHPSKAPVKYGELIVLGYNGSLPNGDRGRRKSRFALFKRPKANGVKPSTVHIACTPQAAKAISNKDQHSISYTLSRAQTVVVEYTHDSNTDMFQIGRSTESPIDFVVTDTVPGSQSNSDTQSVQSTISRFACRIICERSPPFTARIYAAGFDSSKNIFLGEKAAKWKTSDGQMDGLTTNGVLVMHPRNGFTEDSKPGIWREISVCGNVFSLRETRSAQQRGKMVEIETNQLQDGSLIDLCGATLLWRTAEGLSHTPTVKHLEALRQEINAARPQCPVGFNTLAFPSMKRKDVVDEKQPWVYLNCGHVHGYHNWGNKEERDGKDRECPMCRSVGPYVPLWLGCEAGFYVDAGPPTHAFSPCGHVCSEKTTAYWSQIPLPHGTHTFHAACPFCAHQLAGEQGYIRLIFQGPLD
modifications: FLAG tag
- Effect on Reporter Gene ([2]; NF-kB-dependent reporter gene activity, form of murine Pellino-1 expressed in COS cells): Stimulatory
- IL-1-induced NFkB-dependent reporter gene activity ([2]; preliminary experiment, COS-7 cells): partially inhibit

B2: wild-type Pellino-1: wild-type Pellino-1 polypeptide expressed in COS cells; murine sequence SEQ ID NO:2 (protein, listed as Mus musculus)
chain: B1 chain
- NFkB-dependent reporter gene activity ([2]; COS cells transfected with high concentrations of expressing construct): inhibitory effect
- IL-8 promoter-reporter gene activity [4]: stimulates
